In the SangsterLogP compilation:

Assay: method code SF, from DOI: 10.1515/bc.2003.056, PMID: 12715901

| Structure (SMILES) | logP |
| --- | --- |
| CCCC1(C(=O)OC(C)C)CCC=[N+]1[O-] (stereo unspecified) | 0.29 |
| CCCOC(=O)C1(CCC)CCC=[N+]1[O-] (stereo unspecified) | 0.42 |
| CCCCOC(=O)C1(CCC)CCC=[N+]1[O-] (stereo unspecified) | 0.89 |
| CCCOC(=O)C1(CC)CCC=[N+]1[O-] (stereo unspecified) | -0.11 |
| CC(C)OC(=O)C1(C)CCC=[N+]1[O-] (stereo unspecified) | -0.7 |
| CCCCOC(=O)C1(CC)CCC=[N+]1[O-] (stereo unspecified) | 0.46 |

Now from value to compound:

| logP | Structure (SMILES) |
| --- | --- |
| 0.18 | CCC1(C(=O)OC(C)(C)C)CCC=[N+]1[O-] (stereo unspecified) |
| -0.6 | CCOC(=O)C1(CC)CCC=[N+]1[O-] (stereo unspecified) |
| 0.28 | CCC(C)OC(=O)C1(CC)CCC=[N+]1[O-] (stereo unspecified) |
| -0.18 | CCC1(C(=O)OC(C)C)CCC=[N+]1[O-] (stereo unspecified) |
| 0.43 | CCCC1(C(=O)OC(C)(C)C)CCC=[N+]1[O-] (stereo unspecified) |
